# Source: PMC8456932, “Amphiphilic Iodine(III) Reagents for the Lipophilization of Peptides in Water” (Angewandte Chemie (International Ed. in English), 2021)
# Where a SMILES comes first, the peptide text is derived from it. The star is where a group is joined. Ethynyl(2-Si(iPr)3) = CC(C)[Si](C#C*)(C(C)C)C(C)C
# Assays:
# Type in all cases: physicochemical
# [1] = Partition coefficient (LogP), octanol/water method
# Description: [24] Determined using the octanol/water method according to: J. A.Arnott, S. L.Planey, Expert Opin. Drug Discovery 2012, 7, 863–875.
# Calibration with 11a was achieved through the preparation of several samples of different concentrations and their analysis on RP HPLC. These analyses were repeated three times in order to obtain an average curve of calibration. The following linear regression was obtained: Y = 470.12 X + 284.02 and R = 0.9887, where Y is the absorption in mAUs -1 at 214 nm and X the concentration of 11a in mM.
# Figure S3. calibration curve of 11a.
# Calculation of Partition coefficient ( LogP)4
# 2.5 mg (4.0 µmol) 11a was dissolved in 1.7 mL octanol -H2O mixture (0.85 mL 1 -Octanol + 0.85 mL milli-Q H2O) in a 5 mL vial. In order to mix the layers, the vial was shaken on vertex for 1 min. Then the mixture was transferred to a separating funnel. The separating funnel was closed and left standing for 3 h to separate the organic and the H2O layer. Both layers were taken separately and submitted tonreverse phase HPLC. The concentration of both layers was determined by HPLC - […]
# Amount of 11a in 1-octanol = 2.41 mg/mL
# Amount of 11a in H2O = 0.09 mg/mL
# Partition coefficient (P) = amount of 11a in 1-octanol/ amount of 11a in H2O […]
# Following the same procedure for starting material 11: LogP = -1.53
# 4 J. R. Espinosa, C. R. Wand, C. Vega, E. Sanz, D. Frenkel, J. Chem. Phys. 2018, 149, 224501.
# (1 picture or pasted object on this page, not shown here)
# [2] = Cleavage of thioesters with hydroxylamine; conditions: HPLC
# Description: The obtained thioalkynes constitute a new type of lipophilic compounds lacking the electrophilic carbonyl group present in natural palmitoylated peptides, which is required for their hydrolysis. In presence of trifluoroacetic acid (TFA), clean hydration to give thioesters was observed (Scheme 5 a). This hydration can be performed in a one pot protocol with silylated and alkylated alkynes on both small and larger peptides to give thioesters such as 11 aa–bb, 17 aa–bb, 18 aa and 23 aa–bb in 58–82 % yield. 11 bb, 17 bb and 23 bb are then natural palmitoylated products. […] Numerous enzymatic and chemical methods have been reported for the cleavage of palmitoyl groups on cysteine.[25] […] Nevertheless, treatment with a KF solution followed by hydroxylamine also allowed to cleave this thioester with 90 % conversion. Taken together, our work therefore gives access to lipophilic peptide derivatives modifiable/cleavable under different conditions, which can be exploited depending on the desired application.
# Cleavage of palmitoylthioester of Ac-Trp-Met-Asn-Ser-Thr-Gly-Phe-Thr-Lys-Val-Cys-Gly-Ala-NH2 (17bb) A 1.5 mL vial was charged with 17bb (0.5 mg, […],1.0 equiv.) 70 µL 1M NH2OH with a small magnetic bar. The NH2OH solution was freshly prepared in Milli Q water. Then the reaction mixture was stirred for 4 h at rt. […]
# Yield for 17 and disulfide quantitative (retention time 5.0). […]
# [3] = Retention time in RP-HPLC as qualitative measure of lipophilicity; conditions: analytical RP-HPLC
# Method: For example, the retention time of peptide 11 shifted from 5.8 to 13.6 min for 11 a and 20.2 min for 11 b (See SI). The partition coefficient (LogP) of product 11 a was determined to be 1.53 compared with −1.43 for 11.[24] […]
# followed by dimethylformamide wash (4 x 3 mL). Fmoc groups were then removed by shaking the resin with 20% v/v piperidine in dimethylformamide at 400 rpm, over 5 minutes. This step was carried out twice. Next, washing steps were achieved with dimethylformamide (5 x 3 mL). Finally, resin was dried with dichloromethane (5 x 3 mL).
# Peptide cleavage and deprotection: Peptides were deprotected and cleaved from the resin under reducing conditions, by treatment with 2.5% v/v water and 2.5% v/v triisopropylsilane (TIPS) in neat trifluoroacetic acid (5 mL). The resulting mixture was shaken for 2 hours at 400 rpm, at room temperature. The resin was removed by filtration and peptides were precipitated in cold diethyl ether (20 mL), followed by a 2 hours incubation at -20 °C. Peptides were pelleted by centrifugation at 4000 rpm, at 4 °C, for 5 minutes. […]
# A. Fractions containing the desired peptide were lyophilized. The purity was assessed by analyzing a 10-20 mM peptide solution by RP-HPLC (HPLC gradient: 100% A to 100% B in 30 minutes. At the same time, low-resolution mass spectrometric measurements were also acquired. […]
# [4] = Solubility in water of EBX reagents
# [5] = shake-flask 1-octanol/milli-Q H2O (0.85 mL + 0.85 mL), 2.5 mg, vortexed 1 min, left standing 3 h, both layers by RP-HPLC-UV 214 nm
molecule,measurement,setting,value
CC(=O)N[C@@H](C)C(=O)N[C@@H](CSC#C[Si](C(C)C)(C(C)C)C(C)C)C(=O)NCC(=O)N[C@@H](Cc1ccccc1)C(N)=O [11a] (Ac-AC(Ethynyl(2-Si(iPr)3))GF-NH2),logP,[1]; [5],1.53
same,partition coefficient (LogP),[1]; [5],1.43
same,Partition coefficient (P) = amount in 1-octanol / amount in H2O,"[1]; shake-flask 1-octanol/milli-Q H2O, HPLC-UV 214 nm",26.78
silylthioester of H-Ala-Cys-Ala-Phe-Lys-Asp-NH2 [18aa],cleavage of the thioester by hydroxylamine,"[2]; 1 M NH2OH in Milli Q water, rt, 4 h",reacts only very slowly
same,conversion in thioester cleavage with KF and hydroxylamine,"[2]; KF (28.7 equiv) and 1M NH2OH, 37 °C, 14 h",90%
"CC[C@H](C)[C@H](NC(=O)[C@H](Cc1ccccc1)NC(=O)[C@H](CSC#C[Si](C(C)C)(C(C)C)C(C)C)NC(=O)[C@@H](NC(=O)[C@H](CCC(N)=O)NC(=O)[C@H](CSC#C[Si](C(C)C)(C(C)C)C(C)C)NC(=O)[C@H](Cc1c[nH]cn1)NC(=O)[C@H](Cc1ccccc1)NC(C)=O)C(C)C)C(=O)N[C@H](C(N)=O)[C@@H](C)O [24a, Alkynylated (Phe32-Thr40) Ac-Phe-His-Cys-Gln-Val-Cys-Phe-Ile-Thr-NH2] (Ac-FHC(Ethynyl(2-Si(iPr)3))QVC(Ethynyl(2-Si(iPr)3))FIT-NH2)",retention time (HPLC-MS of reaction mixture),"[3]; SI, HPLC gradient Method 1",19.7
K/Na-5-sulfonate TIPS-EBX-SO3M [4a],increase of solubility in water compared to TIPS-EBX (1),"[4]; 4a vs 1, water",more than fifty fold
same,solubility in water,[4],0.46 mg/mL
same,solubility in water,[4]; Supporting Information,460 mg/mL
"CC(=O)N[C@@H](C)C(=O)N[C@@H](CS)C(=O)NCC(=O)N[C@@H](Cc1ccccc1)C(N)=O [compound 11, Ac-Ala-Cys-Gly-Phe-NH2] (Ac-ACGF-NH2)",retention time in RP-HPLC,[3]; HPLC gradient Method 3 per SI,5.8 min
C14H29-EBX-SO3M [4b],solubility in water,[4],450 mg/mL
same,solubility in water,[4]; Supporting Information,450 mg/mL
